{"source": "patent US20070179113A1", "about": "“GM-CSF gene therapy for Crohn's disease using an improved regulated expression system” (Schering Aktiengesellachaft, priority 2005, published 2007)", "key": {"EAE in SJL mice": {"system": "EAE in SJL mice", "assay": "Murine active EAE model, mIFN-β protein and pBRES mIFN-β plasmid with MFP pellet", "assay_type": "in vivo", "settings": "25 days", "description": "FIG. 39A illustrates the effect of treatment of mice with induced EAE neuroinflammation with mIFN-β protein by SC injection every other day for 25 days. SJL mice were immunized on day 1 with proteolipid peptide (PLP) amino acids 139-151/pertussis according to the protocol described in Material and Methods. Groups of mice (n=10 per group) were injected SC on day 1 with mIFN-β protein, 100,000 units (500 ng) or 300,000 units (1500 ng), or vehicle. Animals were scored for EAE disease progression and the average clinical scores are provided with the standard error of the mean score (SEM).\nFIG. 39B illustrates the delay in the onset of disease and decrease in the severity of disease following administration of pBRES mIFN-β as compared to the null vector control group. SJL mice were immunized on day I with PLP 139-151/pertussis according to the protocol described. Groups of mice (n=10 per group) were injected IM on day-7 with 200 ug of either pBRES null plasmid DNA or pBRES mIFN-β plasmid DNA with electroporation. One group of mice were treated daily with Prednisolone by IP injection and served as the positive control for the study. Plasmid treated mice were administered one mifepristone (MFP) containing slow release pellets by SC injection on day-3. Animals were scored for EAE disease progression and the average clinical scores are provided with the standard error of the mean score (SEM). […]"}, "[1]": {"system": "Mx1 RNA in murine L929 cells", "assay": "Mx1 RNA induction in vitro in L929 cells (TaqMan RT-PCR)", "assay_type": "cell-based", "description": "FIG. 5 illustrates Mx1 RNA induction in vitro (in L929 cells) by mIFN-β. L929 cells were seeded at 5×10^5 cells in 6 well plates and stimulated with increasing amounts of purified recombinant mIFN-β protein. Four hours after treatment the cells were harvested, RNA isolated, and Mx1 RNA quantitated by TaqMan analysis. Mx1 RNA expression is plotted as the fold increase relative to GAPDH RNA.\nA quantitative PCR/RT-PCR assay was developed to quantitate the levels of Mx1 mRNA in murine PBMC's. Specifically, peripheral blood mononuclear cells (PBMCs) were isolated from mice treated with either mIFN-β protein or following gene-based delivery of the mIFN-β gene. Blood samples obtained from treated mice were centrifuged on a ficoll cushion for 25 minutes at 2,000 rpm. Purified PBMCs were pelleted and RNA for the Mx1 assay was purified using the “RNAeasy” mini extraction kit from Qiagen. The RNA was stored in H2O at −80° C. Mx1 RT-PCR was performed using TaqMan® chemistry and analysis was done on the Applied Biosystems (ABI) PRISM® 7700 Sequence Detection instrument. For reverse transcription of the RNA and amplification of cDNA, the “One-step TaqMan® RNA” kit from ABI was used. […] The samples were analyzed with an Mx1-specific probe/primer combination. Mx1 expression was normalized to GAPDH expression measured in parallel using a standard assay from ABI. […]"}, "[2]": {"assay": "Luciferase reporter gene assay for activity of purified mIFN-β protein", "assay_type": "cell-based", "description": "Specifically, the gene encoding mIFN-β was cloned into a pCEP4 expression vector (Invitrogen). The expression plasmid encoding mIFN-β was transiently transfected into 293E cells (Edge Biosystems) using X-tremeGene Ro-1539 Transfection Reagent (Roche). Murine IFN-β protein was purified from the medium by ion-exchange chromatography and by hydrophobic-interaction chromatography. The product was sialyzed and concentrated against dilution buffer (50 mM sodium acetate, pH 5.5, 150 mM sodium chloride, and 5% polypropylene glycol) and sterile filtered. Aliquots of the purified protein were stored at −80° C. The activity of the purified protein was assessed using a luciferase reporter gene assay (Hardy et al. (2001) Blood 97:473-482), using a commercial mIFN-β reference standard from Access Biomedical (San Diego, Calif.). The specific activity of the purified protein was 2×10^8 units/mg.\nThe positive control used for this study was Prednisolone, 2.5 mg/kg, (Sigma, St. Louis) administered by IP injection twice daily, beginning on day 1, until the end of the study. For mIFN-β protein delivery, the mice were given SC injections of purified recombinant mIFN-β protein every other day, starting on day 1 of the study (100,000 or 300,000 IU per animal per injection in 100 ul vehicle buffer). […]"}}}
{"substance": "mIFN-β: purified recombinant murine interferon-beta protein expressed in 293E cells", "values": [{"measurement": "severity of disease (clinical scores) compared to vehicle", "setting": "EAE in SJL mice; 100,000 units SC every other day", "value": "significantly reduced the severity of the disease"}, {"measurement": "severity of disease (clinical scores) compared to vehicle", "setting": "EAE in SJL mice; 300,000 units SC every other day", "value": "significantly reduced the severity of the disease"}, {"measurement": "increase in the level of Mx1 RNA", "setting": "[1]", "value": 100, "unit": "fold"}, {"measurement": "EC50 of Mx1 RNA induction", "setting": "[1]; 4 hours treatment", "value": "approximately 50 pg/ml"}, {"measurement": "specific activity of the purified protein", "setting": "[2]", "value": "2×10^8 units/mg"}]}
